According to EP0162545A2, “Enhanced bioconversion processes” (BETZ EUROPE, INC., priority 1984, dated 1985):
Read-outs that look alike come from different tables or passages of the source.

Assays:
Klebsiella = assay: microbe, parasite or virus in culture; assay type: cell-based; details: Klebsiella, read-out: increase in C02 blowoff
Experimental: These patterns were the results of Klebsiella cultures having been grown on glucose (^14C-label). In nature, and in waste treatment facilities, many organic carbon compounds, both simple and complex, would be available for degradation. The known uncouplers and BNS were tested for their ability to increase C02 evolution from cultures exposed to the common substrates lactate, glycine, glycerol, and a denatured protein mixture. […] This was expected in the case of glycine but it was thought that a more complex protein might be degraded and portions used for some energyproduction. It was hoped that these compounds might be a more representative group (more abundant in waste treatment) than simple sugars for determining the extent of activity of BNS. […] Lactate, a common intermediate in microbial metabolism, and a compound which would normally be used as an oxidizable substrate for running the cytochrome chain, gave a more representative response. BNS treated cultures gave increased C02 blowoff (an increase as high as 130% at 5 µg/mL) as did both known uncouplers. […] When glycerol was used as the labeled substrate, BNS treated cultures gave increased C02 at concentrations up to 5 µg/mL.
The procedure used for determining the CO2 evolution was similar to the procedure described previously. Cells having been grown overnight in MSM and glucose were centrifuged and resuspended in MSM + glucose (cold) and used as inoculum. No other cold carbon source (unlabeled) was added. ^14C-labeled substrates (lactate, glycerol, etc.) obtained from New England Nuclear were used and supplied the radiolabeled carbon for the detection of ^14CO2. BNS was utilized in concentrations of 0.5 - 10 µg/mL. Fixed concentrations of 5 µg/mL CCCP and DNP were included for comparative purposes. The following data were obtained in these experiments.

E. coli K12 ATCC 25404 = assay: Batch culture biomass yield and glucose removal; assay type: cell-based, Escherichia coli
Experimental: Biomass determinations were by Millipore Filtration using Millipore type H.A. 0.45 µ filters. Samples were centrifuged @ 15,000 x for 10 min., supernatant was filtered through a dried and preweighed filter. The centrifuged pellet was then vortexed in 2 mL of D.I. water and filtered also. Samples were then dried overnight @ 105°C and re-weighed. Biomass was the weight of the dried filter less the tared filter weight.
Glucose determinations were carried out on the centrifuged reactor sample supernatants using glucose enzymatic assay (hexokinase and glucose 6-phosphate dehydrogenase) UV-15 Sigma Chemical Co., St. Louis, MO. (Assay set-up pamphlet accompanies kit). Spectrophotometric measurements were run on a Zeiss PM-6 Spektralphotometer, Carl Zeiss, 7082 Oberkochen, West Germany.
Escherichia coli K12 ATCC 25404 was grown to 175 K.U. (after 48 hours) on 10 g/1 dextrose, 75 mL/1 25x VBE, 5 mL/1 trace mixture. Ten mL of this culture was then used as seed for 300 mL of media of the same composition and dosed with varying concentrations of CCCP, myristic acid and salicylanilide.
Initial and 72 hour measurements for glucose and biomass were run by the previously described methods.

Saccharomyces cerevisiae = assay: Yeast-alcohol batch fermentation with uncoupler dosing; assay type: cell-based; details: 2.0 ppm CCCP
Experimental: Saccharomyces cerevisiae (Institute of Marine Sciences, U. Of Miami Culture Collection) was used in the following fermentation medium: 1% glucose, 13.4 g/1 yeast nitrogen Base (BBL, Cockeysville, MD), 0.5 g/1 sodium thioglycollate. pH was 5.68, temperature 33°C, agitation 8.5/10 on Fisher Versamix stirplate. CCCP was dosed at 2.0 mg/l.
Reaction vessel was a 3.0 liter working volume fermenter jar - New Brunswick Scientific. Temperature control was held by recirculation of a 33°C hot water bath through the reactor heating coils by a Little Giant Model 1 submergible pump (Little Giant Pump Co., Oklahoma City, OK).
Glucose and biomass determinations were made by the previously mentioned techniques. Ethanol determinations was by the alcohol dehydrogenase method 331-UV (Sigma Chemical Co., St. Louis, MO). Reactors were run for approximately 150 hours with sampling times varying throughout the experiment.

Klebsiella pneumoniae [1] = assay: Standard bacterial counts on the CO2 blowoff vials, first series; assay type: cell-based
Experimental: (§1) The first series of experiments involved the measurement of the amount of C02 evolved from aerobically growing cultures of the representative organism Klebsiella in the presence and absence of uncoupling agents. The known uncouplers 2, 4 dinitrophenol (DNP) and carbonyl cyanide m-chlorophenyl hydrazone (CCCP) were tested along with bis (tricholoromethyl) sulfone (TCMS) and beta-bromo-beta-nitrostyrene (BNS). It can be seen from the data that CCCP caused large increases in C02 evolution over the untreated controls at all concentrations used, with the largest increase (29%) at 5 µg/mL (24.4 uM). […] Bacterial counts also reflected the lack of uncoupling activity. […] Largest increase in C02 blowoff came at 50 ppm (32%). BNS gave a mixed pattern as opposed to those of DNP and CCCP. […] Even at 10 µg/mL, the bacterial count was reduced ~ 50% while still giving greater C02 blowoff than control cultures.
The procedure utilized to perform the first series of experiments was as follows: • Sealed vials containing 8 mL of minimal salts medium (Composition: K2HPO4-39, KH2PO4-lg, MgSO4-0.2g, (NN4)2SO4^-1g, D-glucose-5g (optional) in 1 liter. Autoclave and adjust pH to 6.8) lacking any carbon source were each injected with 1 mL of a suspension of Klebsiella pneumoniae. […] Vials were read for C02 blowoff at the times indicated on the appropriate Tables. […]

Klebsiella pneumoniae [2] = assay: microbe, parasite or virus in culture; assay type: cell-based
Experimental: as §1
The procedure utilized to perform the first series of experiments was as follows: • Sealed vials containing 8 mL of minimal salts medium (Composition: K2HPO4-39, KH2PO4-lg, MgSO4-0.2g, (NN4)2SO4^-1g, D-glucose-5g (optional) in 1 liter. Autoclave and adjust pH to 6.8) lacking any carbon source were each injected with 1 mL of a suspension of Klebsiella pneumoniae. (Klebsiella was grown overnight, shaken at 37°C, in minimal salts medium containing glucose to a heavy cell suspension. The cells were centrifuged at 10,000 g and resuspended to a turbidity of 150 Klett units [Klett-Summerson photometer, #42 blue filter) in minimal salts medium [MSM], no glucose. These cells were again centrifuged, and resuspended in MSM at 1/10 the volume used previously. This 10X cell suspension was used as the standard inoculum for the vials.) The vials were- simultaneously injected with 1 mL of a 1 µ Ci/mL solution of ^14C-U-D glucose and the appropriate concentration of material to be tested. The compounds tested were fed at concentrations of […]. Controls received no test material and all vials were shaken during the course of the experiments at 37°C. Vials were read for C02 blowoff at the times indicated on the appropriate Tables. Standard bacterial counts were done on each vial after the end of each experimental series. [formula] [formula] [formula] [formula]

[3] = Escherichia coli, ATCC25404, 72 h, read-out: drop in biomass yield

## N#CC(C#N)=NNc1cccc(Cl)c1 [CCCP, carbonyl cyanide m-chlorophenyl hydrazone]
Klebsiella; 14C-lactate as labeled substrate, 5 µg/mL
  activation at 5 µg/mL: 151%
E. coli K12 ATCC 25404; 0.4 ppm, batch, 72 hour
  glucose removal efficiency: 100%
E. coli K12 ATCC 25404; 1.0 ppm, batch, 72 hour
  carbon (glucose) removal efficiency: 98.2%
E. coli K12 ATCC 25404; 1.9 ppm, batch, 72 hour
  drop of glucose removal efficiency from control: 4.8%
  glucose removal efficiency: 95.2%
E. coli K12 ATCC 25404; [3]
  inhibition of growth at 0.4 ppm: 14.6%
  inhibition of growth at 1 ppm: 28%
  inhibition of growth at 1.9 ppm: 42.7%
Saccharomyces cerevisiae
  g ETOH formed hr. max.: 0.45
  g ETOH formed hr. max., change vs Control: +41.6%
  g glucose consumed/hr. max.: 0.39
  g glucose consumed/hr. max., change vs Control: +88%
Saccharomyces cerevisiae; f = final
  g cells mole glucosef: 6.59
  g cells mole glucosef, change vs Control: -44.1%
  mole ETOH/Mole Glucosef g cells: 4.02
  mole ETOH/Mole Glucosef g cells, change vs Control: +105.1%
  moles ETOH/ mole glucosef*: 1.39
  moles ETOH/ mole glucosef*, change vs Control: +9.4%
Klebsiella pneumoniae [1]; 50 µg/mL
  bacterial counts: the same as the control levels
Klebsiella pneumoniae [2]; Klebsiella pneumoniae, 5 µg/mL (24.4 uM), 14C-glucose, read-out: largest increase in C02 evolution over the untreated controls
  activation at 5 µg/mL: 29%

## O=[N+]([O-])c1ccc(O)c([N+](=O)[O-])c1 [DNP, 2, 4 dinitrophenol, reference compound]
Klebsiella
  activation at 5 µg/mL: 83%
Klebsiella pneumoniae [1]; even at 50 ppm
  toxic effects (bacterial counts): no toxic effects
Klebsiella pneumoniae [2]; Klebsiella pneumoniae, read-out: Largest increase in C02 blowoff
  activation at 50 ppm: 32%
Klebsiella pneumoniae [2]; Klebsiella pneumoniae, read-out: concentrations causing significant increases in C02 blowoff
  minimal effective concentration: > 5 µg/mL

## CCCCCCCCCCCCCC(=O)O [Myristic acid, myristic acid]
E. coli K12 ATCC 25404; Escherichia coli, ATCC25404, 25 ppm, batch, 72 hour, read-out: reduction in biomass yield
  inhibition of growth at 25 ppm: 19.5%
E. coli K12 ATCC 25404; up to 25 ppm, batch, 72 hour
  inhibitory effects on glucose removal: no inhibitory effects

## O=C(Nc1ccccc1)c1ccccc1O [Salicylanilide, salicylanilide]
E. coli K12 ATCC 25404; 50.5 ppm, batch, 72 hour
  glucose removal efficiency: 99.7%
E. coli K12 ATCC 25404; Escherichia coli, ATCC25404, 50.5 ppm, batch, 72 hour, read-out: drop in biomass yield
  inhibition of growth at 50.5 ppm: ≤ 40.2%

## O=S(=O)(C(Cl)(Cl)Cl)C(Cl)(Cl)Cl [TCMS, bis (tricholoromethyl) sulfone]
Klebsiella pneumoniae [2]; all concentrations, 14C-glucose
  uncoupling property (C02 evolution): no uncoupling property
